Experiments:
[1] = biological target: T1, 5-hydroxytryptamine receptor 1A (Homo sapiens, UniProt P08908); test: Displacement of [3H]-8-OH-DPAT from human 5-HT1A receptor expressed in HEK293 cells incubated for 1 hr by radioligand binding assay; type: cell-based
T1 sequence (P08908 whole entry): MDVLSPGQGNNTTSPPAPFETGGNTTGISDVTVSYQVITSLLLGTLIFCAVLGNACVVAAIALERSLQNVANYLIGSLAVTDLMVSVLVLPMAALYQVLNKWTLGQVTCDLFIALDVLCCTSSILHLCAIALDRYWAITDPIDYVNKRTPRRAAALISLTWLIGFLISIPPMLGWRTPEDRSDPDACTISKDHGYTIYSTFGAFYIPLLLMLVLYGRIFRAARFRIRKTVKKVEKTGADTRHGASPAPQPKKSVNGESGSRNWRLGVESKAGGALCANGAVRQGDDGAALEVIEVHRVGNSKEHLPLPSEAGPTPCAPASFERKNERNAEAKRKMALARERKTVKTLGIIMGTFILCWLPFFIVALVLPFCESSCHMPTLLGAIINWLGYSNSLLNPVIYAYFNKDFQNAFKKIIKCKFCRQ

[2] = biological target: 5-hydroxytryptamine receptor 2A (Homo sapiens, UniProt P28223); test: Displacement of [3H]ketanserin from human 5-HT2A receptor expressed in CHO-K1 cells incubated for 1 hr by radioligand binding assay; type: cell-based
Chain of 5-hydroxytryptamine receptor 2A (P28223 whole entry): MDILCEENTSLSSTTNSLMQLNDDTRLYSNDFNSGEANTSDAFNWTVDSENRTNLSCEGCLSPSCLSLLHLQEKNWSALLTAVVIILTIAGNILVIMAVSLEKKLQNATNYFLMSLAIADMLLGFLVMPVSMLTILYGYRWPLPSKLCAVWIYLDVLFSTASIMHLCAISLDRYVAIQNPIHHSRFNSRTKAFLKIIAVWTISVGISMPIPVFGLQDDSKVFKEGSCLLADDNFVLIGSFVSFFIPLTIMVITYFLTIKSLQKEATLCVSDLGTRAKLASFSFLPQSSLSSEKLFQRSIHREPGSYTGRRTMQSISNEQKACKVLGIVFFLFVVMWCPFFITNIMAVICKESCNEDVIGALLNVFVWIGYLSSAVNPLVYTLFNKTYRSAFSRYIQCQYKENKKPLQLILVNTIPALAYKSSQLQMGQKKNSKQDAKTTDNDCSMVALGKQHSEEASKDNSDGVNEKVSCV

[3] = biological target: T2, Alpha-2A adrenergic receptor (Homo sapiens, UniProt P08913); test: Displacement of [3H]RX821002 from alpha-2A adrenergic receptor (unknown origin)
T2 sequence (P08913 whole entry): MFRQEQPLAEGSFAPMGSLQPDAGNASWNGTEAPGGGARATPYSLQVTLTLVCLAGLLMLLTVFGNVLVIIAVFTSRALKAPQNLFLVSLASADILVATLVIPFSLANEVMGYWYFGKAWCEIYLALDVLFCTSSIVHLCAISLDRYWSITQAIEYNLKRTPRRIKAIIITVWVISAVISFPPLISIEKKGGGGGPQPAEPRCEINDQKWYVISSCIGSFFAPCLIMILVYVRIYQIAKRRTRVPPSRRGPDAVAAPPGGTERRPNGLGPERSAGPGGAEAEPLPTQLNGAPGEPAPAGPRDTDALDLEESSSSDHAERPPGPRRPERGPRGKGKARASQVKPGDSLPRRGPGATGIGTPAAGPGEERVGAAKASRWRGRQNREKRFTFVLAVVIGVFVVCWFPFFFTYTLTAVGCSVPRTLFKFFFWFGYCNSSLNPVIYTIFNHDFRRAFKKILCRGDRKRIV

[4] = biological target: T3, Alpha-1A adrenergic receptor (Homo sapiens, UniProt P35348); test: Displacement of [3H]prazosin from alpha-1A adrenergic receptor (unknown origin)
T3 sequence (P35348 whole entry): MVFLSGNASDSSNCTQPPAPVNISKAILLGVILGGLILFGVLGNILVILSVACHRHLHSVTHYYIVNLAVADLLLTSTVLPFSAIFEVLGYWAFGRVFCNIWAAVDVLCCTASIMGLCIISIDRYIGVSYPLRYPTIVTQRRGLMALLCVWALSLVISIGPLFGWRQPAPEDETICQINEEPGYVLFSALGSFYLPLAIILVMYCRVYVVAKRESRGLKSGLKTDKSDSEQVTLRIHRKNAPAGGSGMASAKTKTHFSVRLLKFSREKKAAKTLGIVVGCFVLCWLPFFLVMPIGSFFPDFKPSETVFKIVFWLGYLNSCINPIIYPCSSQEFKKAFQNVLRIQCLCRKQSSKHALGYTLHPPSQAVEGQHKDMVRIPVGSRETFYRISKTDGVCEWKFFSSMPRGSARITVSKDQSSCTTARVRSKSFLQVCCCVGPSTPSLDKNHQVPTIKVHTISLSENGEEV

[5] = biological target: T4, 5-hydroxytryptamine receptor 2C (Homo sapiens, UniProt P28335); test: Binding affinity to 5-HT2C receptor (unknown origin) incubated for 1 hr by radioligand binding assay
T4 sequence (P28335 whole entry): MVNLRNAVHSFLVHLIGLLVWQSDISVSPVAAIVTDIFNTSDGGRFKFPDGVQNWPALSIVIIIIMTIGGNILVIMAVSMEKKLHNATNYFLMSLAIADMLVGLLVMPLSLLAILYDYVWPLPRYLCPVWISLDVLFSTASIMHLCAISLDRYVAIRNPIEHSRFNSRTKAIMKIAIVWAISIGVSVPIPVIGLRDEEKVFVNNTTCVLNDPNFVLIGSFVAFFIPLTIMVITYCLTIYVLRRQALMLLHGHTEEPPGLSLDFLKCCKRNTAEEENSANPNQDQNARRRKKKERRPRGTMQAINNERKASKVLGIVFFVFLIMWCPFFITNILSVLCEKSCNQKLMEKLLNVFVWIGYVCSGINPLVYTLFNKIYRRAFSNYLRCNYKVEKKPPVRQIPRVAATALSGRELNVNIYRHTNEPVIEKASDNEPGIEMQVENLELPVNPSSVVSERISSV

[6] = biological target: 5-hydroxytryptamine receptor 7 (Homo sapiens, UniProt P34969); test: Displacement of [3H]-5-CT from human 5-HT7B receptor expressed in HEK293 cells incubated for 1 hr by radioligand binding assay; type: cell-based
Chain of 5-hydroxytryptamine receptor 7 (P34969 whole entry): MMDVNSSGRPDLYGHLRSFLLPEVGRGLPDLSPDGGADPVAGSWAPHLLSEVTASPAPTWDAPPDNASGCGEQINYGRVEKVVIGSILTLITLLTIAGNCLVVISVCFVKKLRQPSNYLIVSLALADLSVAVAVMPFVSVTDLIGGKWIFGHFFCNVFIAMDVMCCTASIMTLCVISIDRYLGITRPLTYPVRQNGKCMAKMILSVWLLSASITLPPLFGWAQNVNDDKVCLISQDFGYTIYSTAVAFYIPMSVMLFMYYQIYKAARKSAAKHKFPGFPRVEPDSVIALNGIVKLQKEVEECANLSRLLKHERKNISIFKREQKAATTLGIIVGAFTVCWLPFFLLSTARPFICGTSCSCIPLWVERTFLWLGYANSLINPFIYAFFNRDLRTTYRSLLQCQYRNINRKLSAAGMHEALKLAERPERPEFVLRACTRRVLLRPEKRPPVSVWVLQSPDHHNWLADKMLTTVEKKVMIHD

[7] = biological target: 5-hydroxytryptamine receptor 2B (Homo sapiens, UniProt P41595); test: Binding affinity to 5-HT2B receptor (unknown origin) incubated for 1 hr by radioligand binding assay
Chain of 5-hydroxytryptamine receptor 2B (P41595 whole entry): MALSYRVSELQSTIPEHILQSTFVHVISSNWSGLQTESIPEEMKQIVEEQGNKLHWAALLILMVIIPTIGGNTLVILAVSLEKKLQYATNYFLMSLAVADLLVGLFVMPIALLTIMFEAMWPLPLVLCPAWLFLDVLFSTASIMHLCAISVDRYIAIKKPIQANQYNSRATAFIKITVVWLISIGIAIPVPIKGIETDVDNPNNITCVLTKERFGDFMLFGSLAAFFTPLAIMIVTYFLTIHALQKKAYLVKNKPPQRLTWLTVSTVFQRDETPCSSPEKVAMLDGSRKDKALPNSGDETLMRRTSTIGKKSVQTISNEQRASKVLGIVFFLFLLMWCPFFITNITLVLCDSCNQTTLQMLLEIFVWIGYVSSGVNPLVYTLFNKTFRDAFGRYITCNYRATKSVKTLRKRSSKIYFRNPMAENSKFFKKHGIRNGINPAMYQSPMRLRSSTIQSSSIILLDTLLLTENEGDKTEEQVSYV

[8] = biological target: 5-hydroxytryptamine receptor 6 (Homo sapiens, UniProt P50406); test: Displacement of [3H]LSD from human 5-HT6 receptor expressed in HEK293 cells incubated for 1 hr by radioligand binding assay; type: cell-based
Chain of 5-hydroxytryptamine receptor 6 (P50406 whole entry): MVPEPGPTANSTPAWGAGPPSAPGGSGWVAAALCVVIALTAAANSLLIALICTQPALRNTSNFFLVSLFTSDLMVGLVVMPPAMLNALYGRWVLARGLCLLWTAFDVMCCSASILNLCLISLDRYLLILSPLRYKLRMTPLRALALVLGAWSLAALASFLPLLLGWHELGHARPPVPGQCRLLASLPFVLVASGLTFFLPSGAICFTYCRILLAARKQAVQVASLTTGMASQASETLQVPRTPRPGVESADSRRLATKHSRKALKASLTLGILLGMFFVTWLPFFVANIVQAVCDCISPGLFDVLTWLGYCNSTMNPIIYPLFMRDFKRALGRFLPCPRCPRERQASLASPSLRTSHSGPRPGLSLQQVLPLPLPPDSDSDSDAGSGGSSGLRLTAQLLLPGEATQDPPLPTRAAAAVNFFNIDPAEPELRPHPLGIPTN

Ki [1] [nM] | Ki [2] [nM] | Ki [3] [nM] | Ki [4] [nM] | Ki [5] [nM] | Ki [6] [nM] | Ki [7] [nM] | Ki [8] [nM] | Compound
> 1000 | 338 | 5500 | 370 | > 10000 | > 10000 | 708 | > 10000 | C[C@H]([C@H](O)c1ccc(O)cc1)N1CCC(Cc2ccccc2)CC1
> 1000 | 421 | 1600 | 140 | 748 | 513 | 95 | > 1000 | C[C@@H]([C@H](O)c1ccc(O)cc1)N1CCC(Cc2ccccc2)CC1 [(R,S)-IFENPRODIL]
> 1000 | 369 | 6100 | 530 | > 10000 | > 10000 | > 1000 | > 10000 | C[C@@H]([C@@H](O)c1ccc(O)cc1)N1CCC(Cc2ccccc2)CC1 [(S)-IFENPRODIL]
46 | 510 | 2300 | 27 | > 10000 | > 10000 | 66 | > 1000 | C[C@H]([C@@H](O)c1ccc(O)cc1)N1CCC(Cc2ccccc2)CC1 [(S,R)-IFENPRODIL]
